The source of these data is patent publication US7445790B2, “External preparations for skin” (Shiseido Company, Ltd., priority 2002, dated 2008).

A short description of data set [1]: IOB value of the oil component. In kind it is physicochemical. The conditions noted are these: obtained oil component.
The nature of data set [2]: Solubility of a slightly soluble triazine-type ultraviolet absorbent in oil components at 0° C. In kind it is physicochemical. The conditions noted are these: concentration (mass percentage) in a saturated solution at 0° C. of 2,4-bis{[4-(2-ethylhexyloxy)-2-hydroxy]phenyl}-6-(4-methoxyphenyl)1,3,5-triazine in the oil component.
Excerpt: (§1) For the slightly soluble ultraviolet absorbent, a triazine-type ultraviolet absorbent 2,4-bis{[4-(2-ethylhexyloxy)-2-hydroxy]phenyl}-6-(4-methoxyphenyl)1,3,5-triazine was used.
This oil component is a mixture of alkyl benzoates having 12-15 carbon atoms.
as §1

Take `CCCCC(CC)COC(=O)c1ccccc1` (centres unmarked) [2-ethylhexyl benzoate]: in data set [1], the IOB value is listed as 0.26.

`CC(CCOC(=O)c1ccccc1)CC(C)(C)C` (centres unmarked) [3,5,5-trimethylhexyl benzoate] registered an IOB value in data set [1] of 0.26.

`CC(C)CCCC(C)CCOC(=O)c1ccccc1` (centres unmarked) [3,7-dimethyloctyl benzoate]: the IOB value in data set [1] was found to be 0.23.

For the compound `C[Si]1(C)O[Si](C)(C)O[Si](C)(C)O[Si](C)(C)O[Si](C)(C)O1` [Decamethyl cyclopentane siloxane], the Solubility in data set [2] (Table 1-4) and in data set [2] (Table 2-1) was 0% throughout.
